Measurements as given in patent US7063844B2, “Presentation of hydrophobic antigens to T-cells by CD1 molecules” (The Brigham and Women's Hospital, Inc., priority 1992, dated 2006).
Where two headings read alike, the source gives them in different places.

What was measured:
[1] = in vivo; cited from earlier work
[2] = tested on: T-cell line DN1; assay type: cell-based, human; conditions: CD1+ APCs (GM-CSF- and IL-4-treated monocytes)
[3] = tested on: peripheral blood monocytes; experiment: CD1 expression on cytokine-cultured monocytes, flow cytometry; assay type: cell-based, human; conditions: for expression of CD1a, CD1b and CD1c on monocytes: monocytes cultured with cytokine, 60 hours
[4] = tested on: T-cell line LDN4; experiment: Proliferation of CD1b-restricted line LDN4; assay type: cell-based, human
[5] = tested on: T-cell line BDN2; assay type: cell-based, human
[6] = tested on: T-cell line DG.1; assay type: cell-based, human; conditions: CD1+ PBMCs from HLA-DR7 positive individual as APCs
[7] = tested on: T-cell line OAB8; experiment: Proliferation assay, CD8+ TCR αβ+ line OAB8; assay type: cell-based, human; conditions: mycolic acid at 1 μg/ml
[8] = tested on: T-cell lines SP-F3, CP.1.15, BK6; experiment: Proliferation of further T-cell lines to test mitogenicity (SP-F3, CP.1.15, BK6); assay type: cell-based, human
[9] = tested on: T-cell line OGD1; experiment: Proliferation assay, TCR γδ+ line OGD1; assay type: cell-based, human; conditions: activated monocytes, 3 day assay
[10] = tested on: T-cell line DN6; experiment: Proliferation assay, CD1c-restricted line DN6; assay type: cell-based, human; conditions: CD1+ APCs

6,6-trehalose dimycolate
antibody formation [1]: enhance antibody formation | nonspecific immunity to bacterial infections and tumors [1]: stimulate nonspecific immunity | proliferative response of T-cell line DN1 to antigen [2]: stimulated the proliferation

CCCCCCCCCCCCCCCCCCCCCC(=O)OC[C@H]1O[C@H](O[C@H]2O[C@H](COC(=O)CCCCCCCCCCCCCCCCCCCCC)[C@@H](O)[C@H](O)[C@H]2O)[C@H](O)[C@@H](O)[C@@H]1O [trehalose dibehanate]
proliferative response of T-cell line DN1 to antigen [2]: no stimulation

GM-CSF: granulocyte/monocyte colony stimulating factor used alone
expression of CD1a, CD1b and CD1c on monocytes [3]: somewhat less

lipoarabinomannan [LAM]
proliferative response of LDN4 to antigen [4]: proliferated | proliferative response of LDN4 to antigen ([4]; listed as Lep LAM): stimulated | proliferative response of LDN4 to antigen ([4]; listed as native LAM): striking T-cell proliferation | response of BDN2 to antigen [5]: responded

mycolic acid
recognition by T-cell line DG.1 (proliferative response) [6]: recognized only by CD1b-restricted DN1 T-cells | response of OAB8 to antigen [7]: recognized | proliferative response of T-cell line DN1 to antigen [2]: recognized | proliferative response of SP-F3, CP.1.15 and BK6 [8]: did not respond | mitogenicity ([8]; six T-cell lines tested): not mitogenic | response of OGD1 to antigen [9]: recognized | recognition by T-cell line DN6 (proliferative response) [10]: recognized only by CD1b-restricted DN1 T-cells

mycolic acid-arabinogalactan-peptidoglycan [mAGP]
proliferative response of LDN4 to antigen [4]: No response

phosphatidylinositol mannoside [PIM]
proliferative response of LDN4 to antigen [4]: ten-fold more than media alone

B1: Il-10: cytokine strongly expressed in lepromatous lesions (protein, UniProt P22301 19-178, looked up)
Interleukin-10: SPGQGTQSENSCTHFPGNLPNMLRDLRDAFSRVKTFFQMKDQLDNLLLKESLLEDFKGYLGCQALSEMIQFYLEEVMPQAENQDPDIKAHVNSLGENLKTLRLRLRRCHRFLPCENKSKAVEQVKNAFNKLQEKGIYKAMSEFDIFINYIEAYMTMKIRN
inhibition of the expression of CD1 on monocytes ([3]; data not shown): could inhibit

B2: interferon-γ: cytokine, 100 U/ml (protein, UniProt P01579 24-161, looked up)
Interferon gamma: QDPYVKEAENLKKYFNAGHSDVADNGTLFLGILKNWKEESDRKIMQSQIVSFYFKLFKNFKDDQSIQKSVETIKEDMNVKFFNSNKKKRDDFEKLTNYSVTDLNVQRKAIHELIQVMAELSPAAKTGKRKRSQMLFRG
expression of CD1a, CD1b and CD1c on monocytes [3]: did not express significant levels
